{"source": "patent US10798946B2", "about": "“Method for managing flea beetles of the family chrysomelidae in Brassica crops” (BASF Agrochemical Products B.V., priority 2015, dated 2020)", "tested_on": "Psylliodes chrysocephala (PSYICH; rape flea beetle)", "experiment": "Field trial: flea beetle attack on winter oilseed rape, counted as crop plants with eating damage", "format": "in vivo", "experimental": "A field trial to investigate methods for flea beetle management in Brassica crops was carried out under the regime of Good Experimental Practice (GEP) in Germany, federal state of Niedersachsen. The trial was set up in a 3 time replicated, one factorial randomized block design. The plot size was 45 m^2.\nThe winter oilseed rape (WOSR) variety used in the trial was the commercial hybrid “Edimax CL®” carrying a tolerance against imidazolinone herbicides. As trap plant Sinapis alba, variety “Ascot” was used.\nAll WOSR seeds had been commercially treated with the product Aatiram65®, containing the active ingredient Thiram (650 g/I), at a dose rate of […] seeds to protect the seed from emergence diseases.\nOnly the WOSR seeds for the respective plots had been treated with 160 ml/100 kg seeds with a flowable concentrate containing 8% of Bacillus amyloliquefaciens ssp. plantarum MBI600 as flea beetle repellant.\nFor the trap plants, no seed treatment was applied.\nAt the day of seeding, the trap plants were seeded first in the respective plots at a seed rate of 3.6 k/ha using a plot seeder. Afterwards, the plots with WOSR treated with Aatiram65® only were seeded, then WOSR treated on top with Bacillus amyloliquefaciens ssp. plantarum MBI600. Thus, any contamination/mixing of the different seeds and seed treatments was prevented. In both cases, a WOSR seeding rate of 50 seeds per m^2 was targeted.\nIn order to control any undesired vegetation besides the crop and the trap plants, the commercial broad spectrum herbicide Butisan Top® was applied at a dose rate of 2.0 I/ha pre-emergence of the crop and trap plants.\nAfter the crop was mature enough to overcome flea beetle damage (2-4 true leaf stage (BBCH 12-14)), the plots were sprayed with Pulsar 40 (active ingredient Imazamox) at a dose rate of 0.875 I/ha.\nThe intensity of the flea beetle attack was evaluated 26 days after seeding (DAS) and 33 DAS by counting the number of crop plants with eating damage. On the first assessment, the crop plants were in 1-2 true leaf stage (BBCH 11-12), at the later assessment, the crop plants had developed to the 1-4 true leaf stage (BBCH 11-14)."}
{"substance": "Bacillus amyloliquefaciens ssp. plantarum MBI600 [MBI 600]", "values": [{"measurement": "infestation / number of crop plants attacked by flea beetles (in words)", "setting": "field trial, both days of assessment", "value": "did not reduce the infestation"}, {"measurement": "plants with eating damage (26 DAS)", "setting": "number of crop plants with eating damage, 26 days after seeding, WOSR Edimax CL, BBCH 11-12, MBI600 seed treatment 160 ml/100 kg seeds of 8% flowable concentrate", "value": 34}, {"measurement": "plants with eating damage (33 DAS)", "setting": "number of crop plants with eating damage, 33 days after seeding, WOSR Edimax CL, BBCH 11-14, MBI600 seed treatment 160 ml/100 kg seeds of 8% flowable concentrate", "value": 34}, {"measurement": "plants with eating damage (26 DAS), rel.", "setting": "relative to treatment 1 (none) = 100, 26 days after seeding", "value": 103}, {"measurement": "plants with eating damage (33 DAS), rel.", "setting": "relative to treatment 1 (none) = 100, 33 days after seeding", "value": 91}]}
